Source: patent US20040241840A1, “Compositions for therapy” (priority 2001, published 2004)
Structures can show the parent of a compound that is named as a salt. Marks after values point to notes of the source that are not given here.

What was measured:
[1] = biological target: T1, low affinity glucocorticoid binding site (LAGS) (Rattus norvegicus, UniProt P70580); experiment: competition analysis with 5×10^−8M [3H]dexamethasone for binding to the LAGS; conditions: for IC50: read-out: IC50% (concentration of unlabelled competitor reducing specific binding of radiolabelled dexamethasone to the LAGS to 50% of control); for competition with dexamethasone for binding to the LAGS (in words): 4° for 8 hours, FIG. 2
T1 sequence (P70580 2-195): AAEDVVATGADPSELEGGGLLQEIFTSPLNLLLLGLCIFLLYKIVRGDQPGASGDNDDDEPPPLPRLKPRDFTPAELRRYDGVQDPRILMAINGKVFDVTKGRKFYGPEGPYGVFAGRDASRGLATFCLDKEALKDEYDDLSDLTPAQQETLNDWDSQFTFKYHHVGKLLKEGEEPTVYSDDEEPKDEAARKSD
Procedure: Washed liver microsomes (100,000 g pellet) were prepared after canulating the portal vein of a rat and perfusing blood from the liver using ice-cooled hanks buffer.
Data were analysed using standard methods.
Potential competitors were added from ethanol stocks such that the final ethanol concentration in the assay was less than 1% (v/v). Specific binding was determined using conventional methods as described above.
Free ligand was removed using dextran-charcoal. […] Competitors were added from ethanol stocks such that final ethanol concentration in the assay was less than 1% (v/v).

[2] = tested on: T6 cells (rat hepatic stellate cell line); experiment: proliferation of T6 cells (cell count); assay type: cell-based; conditions: re-treated at 24 hours, counted at 48 hours
Procedure: (§1) However, when rat and human HSCs were treated with ligands of LAGS, the proliferation and activation of the HSCs was inhibited. In addition, T6 cells (rat hepatic stellate cell line) were seeded at low density in 6 well plates in DMEM supplemented with 4% (v/v) FCS. The T6 cells were re-treated at 24 hours and counted at 48 hours. Human hepatic stellate cells were treated at days 2, 5, 7, 9 and 12 of culture and counted on day 15 of culture. Control cells were treated identically with 0.1% (v/v) ethanol used to prepare steroid stocks.

[3] = tested on: rats administered CCl4 (liver fibrosis); experiment: CCl4 liver fibrosis rat in vivo model; conditions: PCN once weekly during CCl4 twice weekly for 6 weeks
Procedure: Rats were administered CCl4 twice weekly for 6 weeks to cause liver fibrosis and administered PCN once weekly during CCl4 treatment.

rat and human HSCs = experiment: proliferation of rat and human HSCs, results in words; assay type: cell-based
Procedure: (§2) Rat hepatic stellate cells (HSCs) were isolated by pronase/collagenase perfusion and purified by isopycnic density centrifugation in Opti-prep™ (Nycomed) and elutriation (Wright et al (2001) Gastroenterology 121(3): 685-698). Human HSCs were isolated from discarded resected liver via a similar protocol. The use of human liver tissue for scientific investigation was approved by the UK South and West Local Research Ethics Commitee and was subject to patient consent.
(§3) HSCs were cultured in Dulbecco's modified Eagle Medium (DMEM) containing 4.5 g/l of glucose, supplemented with 16% (v/v) fetal calf serum, 80 u/ml penicillin, 80 μg/ml streptomycin and 32 μg/ml gentamycin. Cells were seeded onto plastic culture dishes and incubated at 37° C. in an humidified incubator gassed with 5% CO2 in air. The culture medium was renewed after the first day and thereafter every 3-4 days.
as §1

glucocorticoid receptor = biological target: T2, glucocorticoid receptor (Rattus norvegicus, UniProt P06536); experiment: specific binding of 10 nM [3H]dexamethasone in rat liver cytosol
T2 construct: from tissue; host or cells: rat liver cytosol
T2 sequence (P06536 1-795): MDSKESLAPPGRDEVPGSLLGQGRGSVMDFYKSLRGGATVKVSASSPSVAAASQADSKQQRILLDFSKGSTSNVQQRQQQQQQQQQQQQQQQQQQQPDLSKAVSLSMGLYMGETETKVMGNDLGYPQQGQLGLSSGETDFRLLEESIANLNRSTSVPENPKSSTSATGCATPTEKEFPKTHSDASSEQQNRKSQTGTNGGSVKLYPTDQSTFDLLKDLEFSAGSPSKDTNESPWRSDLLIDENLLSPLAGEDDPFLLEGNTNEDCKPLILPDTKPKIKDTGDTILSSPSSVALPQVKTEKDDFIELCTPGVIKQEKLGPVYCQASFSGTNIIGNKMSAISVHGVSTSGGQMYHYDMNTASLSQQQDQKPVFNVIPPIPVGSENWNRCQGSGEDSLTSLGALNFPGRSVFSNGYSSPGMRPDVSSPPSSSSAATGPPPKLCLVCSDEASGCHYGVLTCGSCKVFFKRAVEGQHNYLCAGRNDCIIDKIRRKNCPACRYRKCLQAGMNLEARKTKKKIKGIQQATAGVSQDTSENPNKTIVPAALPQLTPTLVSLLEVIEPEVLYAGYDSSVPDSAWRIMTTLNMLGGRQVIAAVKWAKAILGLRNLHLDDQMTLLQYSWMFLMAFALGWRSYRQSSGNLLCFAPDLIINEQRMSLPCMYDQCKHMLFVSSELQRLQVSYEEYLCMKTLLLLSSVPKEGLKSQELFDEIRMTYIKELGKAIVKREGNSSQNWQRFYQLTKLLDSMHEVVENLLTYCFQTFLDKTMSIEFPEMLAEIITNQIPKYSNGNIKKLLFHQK

[4] = biological target: T1, low affinity glucocorticoid binding site (LAGS); experiment: specific binding of 10 nM [3H]dexamethasone in rat liver microsomes; conditions: read-out: % specific binding compared to dexamethasone alone, microsomes
[5] = tested on: α-smooth muscle actin expression in human HSCs; experiment: α-smooth muscle actin expression in cultured human hepatic stellate cells (Western blotting); assay type: cell-based; conditions: human HSCs cultured for 15 days, FIG. 3
Procedure: The effect of LAGS ligands on activation to the pro-fibrogenic phenotype was investigated by measuring the effect of LAGS ligands on expression of α-smooth muscle actin in cultured human hepatic stellate cells. […] Whole cell extracts (10 μg protein/lane) were probed for alpha-smooth muscle actin and GFAP (glial fibrillary acidic protein—loading control) protein expression by Western blotting. Scanned blots were quantitated using Phoretix software (Nonlinear Dynamics, Newcastle, UK).

human HSCs = experiment: proliferation of human hepatic stellate cells (cell count); assay type: cell-based; conditions: treated at days 2, 5, 7, 9 and 12, counted on day 15
Procedure: as §2, §3
as §1, with “Control cells were treated identically with 0.1% (v/v) ethanol used to prepare steroid stocks.” left out

[6] = biological target: T1, low affinity glucocorticoid binding site (LAGS); conditions: 1 μM; Wright & Paine (1995); cited from earlier work

CC(=NOCC(=O)O)[C@H]1CC[C@H]2[C@@H]3CCC4=C[C@@H](O)CC[C@]4(C)[C@H]3CC[C@]12C [4 pregnene-3β-ol-20-one carboxymethyloxime]
IC50 [1]: > 100 µM

CC(=O)[C@H]1CC[C@H]2[C@@H]3C[C@@H](O)C4=CC(=O)CC[C@]4(C)[C@H]3CC[C@]12C [6α-hydroxyprogesterone]
IC50 [1]: 5 µM

CC(=O)O[C@@H]1C[C@H]2[C@@H]3CC[C@H](C(C)=O)[C@@]3(C)CC[C@@H]2[C@@]2(C)CCC(=O)C=C12 [6β-progesterone acetate]
IC50 [1]: 0.5 µM

CC(=O)[C@H]1CC[C@H]2[C@@H]3CCC4=CC(=O)CC[C@]4(C)[C@H]3[C@H](O)C[C@]12C [11α-hydroxyprogesterone]
IC50 [1]: 0.1 µM

CC(=O)O[C@@H]1C[C@]2(C)[C@@H](C(C)=O)CC[C@H]2[C@@H]2CCC3=CC(=O)CC[C@]3(C)[C@H]21 [11α-progesterone acetate]
IC50 [1]: 0.1 µM

CC(=O)[C@H]1CC[C@H]2[C@@H]3CCC4=CC(=O)CC[C@]4(C)[C@H]3[C@@H](OS(=O)(=O)c3ccc(C)cc3)C[C@]12C [11β-progesterone tosylate]
IC50 [1]: 10 µM

CC1CC2C3CCC4=CC(=O)C=CC4(C)C3(F)C(O)CC2(C)C1(O)C(=O)O (stereo not drawn) [17β-carboxylic acid derivative, 9α-fluoro 16α-methyl-11β,17α-dihydroxy-1,4-pregn-3-one 17-carboxylic acid]
IC50 [1]: 100 µM

CC(=O)[C@H]1[C@H](C#N)C[C@H]2[C@@H]3CC=C4C[C@@H](O)CC[C@]4(C)[C@H]3CC[C@@]21C [PCN, pregnenolone 16-alpha carbonitrile]
% proliferation versus control (100%), T6 cells ([2]; 10 μM): 55 +/− 17%
Sirius red staining (collagens) in liver [3]: significantly reduced
blinded histological scoring of H&E stained liver sections, CCl4 versus CCl4/PCN treated rats [3]: no significant difference
liver serum (AST) enzyme levels, CCl4 versus CCl4/PCN treated rats [3]: no significant difference
number of cells and extent of α-smooth muscle actin staining in livers [3]: significantly reduced
effect on cell proliferation (in words) (rat and human HSCs): inhibited in their ability to proliferate
competition with dexamethasone for binding to the LAGS (in words) [1]: compete with dexamethasone for binding to the LAGS

CC#C[C@]1(O)CC[C@H]2[C@@H]3CCC4=CC(=O)CCC4=C3[C@@H](c3ccc(N(C)C)cc3)C[C@@]21C [RU486]
% specific binding compared to dexamethasone alone, cytosol (glucocorticoid receptor; 10 μM RU486, mean and SD of 3 samples): 0* %
activity at 10 µM [4]: 123%

CO[C@H]1C[C@H](O[C@H]2[C@H](C)[C@@H](O[C@@H]3O[C@H](C)C[C@H](N(C)C)[C@H]3OC(C)=O)[C@@H](C)C[C@@]3(CO3)C(=O)[C@H](C)[C@@H](OC(C)=O)[C@@H](C)[C@@H](C)OC(=O)[C@@H]2C)O[C@@H](C)[C@@H]1OC(C)=O [TAO, troleandomycin]
% proliferation versus control (100%), T6 cells ([2]; 100 μM): 106 +/− 2.8%

Clc1ccccc1C(c1ccccc1)(c1ccccc1)n1ccnc1 [clotrimazole]
expression of α-smooth muscle actin (in words) ([5]; 1 μM clotrimazole): inhibited expression of α-smooth muscle actin
% proliferation versus control (100%), T6 cells ([2]; 5 μM): 18 +/− 4.7%
effect on cell proliferation (in words) (rat and human HSCs): inhibited in their ability to proliferate
% proliferation versus control (100%), human HSCs (human HSCs; 5 μM): 25 +/− 13%
competition with dexamethasone for binding to the LAGS (in words) [1]: compete with dexamethasone for binding to the LAGS

C[C@@H]1C[C@H]2[C@@H]3CCC4=CC(=O)C=C[C@]4(C)[C@@]3(F)[C@@H](O)C[C@]2(C)[C@@]1(O)C(=O)COS(C)(=O)=O [dexamethasone mesylate]
IC50 [1]: 10 µM

C[C@@H]1C[C@H]2[C@@H]3CCC4=CC(=O)C=C[C@]4(C)[C@@]3(F)[C@@H](O)C[C@]2(C)[C@@]1(O)C(=O)CO [dexamethasone]
effect on cell proliferation (in words) (rat and human HSCs): no effect

CC(C)(C(=O)c1cccnc1)c1cccnc1 [metyrapone]
expression of α-smooth muscle actin (in words) ([5]; 200 μM metyrapone): inhibited expression of α-smooth muscle actin
% proliferation versus control (100%), T6 cells ([2]; 500 μM): 52 +/− 5.7%
effect on cell proliferation (in words) (rat and human HSCs): inhibited in their ability to proliferate
% specific binding compared to dexamethasone alone, cytosol (glucocorticoid receptor; metyrapone, concentration not given, mean and SD of 3 samples): 105 +/− 4.0%
% proliferation versus control (100%), human HSCs (human HSCs; 500 μM): 76 +/− 18%
competition with dexamethasone for binding to the LAGS (in words) [1]: compete with dexamethasone for binding to the LAGS

CCC1(c2ccccc2)C(=O)NC(=O)NC1=O [phenobarbitone]
competition with dexamethasone for binding to the LAGS (in words) [1]: compete with dexamethasone for binding to the LAGS

CC(=O)C1CCC2C3CCC4=CC(=O)CCC4(C)C3CCC12C (stereo not shown) [progesterone]
effect on cell proliferation (in words) (rat and human HSCs): no effect
competition with dexamethasone for binding to the LAGS (in words) [1]: compete with dexamethasone for binding to the LAGS

betamethasonenone
IC50 [1]: 5 µM

biotinylated dexamethasone
IC50 [1]: > 100 µM

oestradiol
expression of α-smooth muscle actin (in words) ([5]; 1 μM oestradiol): inhibited expression of α-smooth muscle actin
binding to the LAGS (in words) [6]: a ligand for the LAGS at this concentration
